Here are results for 3 compounds from patent US11110126B2, “Method of expanding NK cell and composition for culturing” (Korea University Research and Business Foundation, priority 2015, dated 2021).

The subject of assay [1] is NK cells. The experiment in a line: ROS generation in in vitro-expanded NK cells (DCF-DA flow cytometry). In kind it is cell-based, human. To be noted: 100 μM DCF-DA; for order of ROS generation among treated groups: rank order of groups, lowest ROS first. As for the experimental part:
To measure ROS generated in in vitro-expanded NK cells, NK cells cultured by treatment with an inhibitor individually or in combination were harvested. 1×10^6 cells were seeded per well in a 24-well plate, cultured in a 5% CO2 incubator for 30 minutes, and then collected. The cells were washed once with 1 ml of PBS, followed by flow cytometry using 100 μM DCF-DA. The experiment was performed on a control group which was not treated, and experimental groups treated with apocynin, trolox, pifithrin-α and trolox+pifithrin-α, respectively, and the results are shown in FIG. 9.

Assay [2] deals with NK cells. Briefly: Influence of ROS and/or p53 inhibitor on ex-vivo culture (expansion) of NK cells, cell number by hemocytometer. The assay is classed as cell-based, human. As to conditions: PBMC-derived NK cells cultured 10 days, then inhibitor at three-day intervals, counted after culture for 2 weeks; apocynin 400 μM, trolox 50 μM, pifithrin-α 1 μM, combination 50 μM trolox + 500 nM pifithrin-α. As for the experimental part:
Human blood was prepared, and subjected to centrifugation at 2500 rpm for 30 minutes using Ficoll (Ficoll-Paque™ PLUS, GE Healthcare). Then, peripheral blood mononuclear cells were isolated from a buffy coat. Afterward, a Jurkat cell line irradiated at 100 Gy and an EBV-LCL cell line were co-cultured with PBMCs:KL-1:EBV-LCL in a ratio of 1:0.5:0.5 in hRPMI medium prepared by adding 10% FBS and 1% penicillin/streptomycin to RPMI1640 medium in the presence of 500 U/ml IL-2, and the medium was exchanged with hRPMI medium supplemented with 500 U/ml IL-2 once for 2 to 3 days. To examine the influence of an ROS inhibitor on NK cells, the NK cells were cultured for 10 days under the conditions of Preparation Example 1. Then, 400 μM of an apocynin (Calbiochem), 50 μM of trolox (Santa Cruz) and 1 μM of pifithrin-α (Santa Cruz) were treated individually, and 50 μM trolox and 500 nM pifithrin-α were treated in a combination. The inhibitor was treated at three-day intervals, and a cell number was assessed after culture for 2 weeks. Here, the medium was exchanged with hRPMI medium added with 500 U/ml of IL-2 once for three days, and a cell number was calculated using a hemocytometer.

For `COc1cc(C(C)=O)ccc1O` [apocynin, 1-(4-hydroxy-3-methoxyphenyl)-ethanone], the “order of ROS generation among treated groups” value (“order” for short) with NK cells [1] is listed as “trolox<pifithrin-α<trolox+pifithrin-α<apocynin<control group”. Moreover, the “NK cell number compared with the control group” value with NK cells [2] is listed as “statistically significant increase”.

`Br.Cc1ccc(C(=O)Cn2c3c(sc2=N)CCCC3)cc1` [pifithrin-α, 2-(2-imino-4,5,6,7-tetrahydrobenzothiazol-3-yl)-1-p-tolylethanone hydrobromide]: the “order” value in the assay on NK cells [1] is listed as “trolox<pifithrin-α<trolox+pifithrin-α<apocynin<control group”. Besides, the “NK cell number compared with the control group” value in the assay on NK cells [2] was “statistically significant increase”.

For the compound `Cc1c(C)c2c(c(C)c1O)CCC(C)(C(=O)O)O2` (stereo not shown) [trolox, 6-hydroxy-2,5,7,8-tetramethylchroman-2-carboxylic acid], in the assay on NK cells [1] (NK cells cultured with inhibitor), the “ROS generation compared with the control group” value is “significantly decreased”. In addition, in the assay with NK cells [1], the “order” value is listed as “trolox<pifithrin-α<trolox+pifithrin-α<apocynin<control group”. Also, in the assay with NK cells [2], the “NK cell number compared with the control group” value is on record as “statistically significant increase”.
